# Activity calls are given as the source filed them. The calls are words filed in the database; no cut-off is given here.
# What was measured:
# U-118-MG [1] = test: Effect on IL6 mRNA expression in human U118MG cells at EC10 by qPCR method relative to beta-actin; assay type: functional
# U-118-MG [2] = test: Effect on PMP22 mRNA expression in human U118MG cells at EC10 by qPCR method relative to beta-actin; assay type: functional
# SH-SY5Y [3] = test: Effect on TNFRSF1A mRNA expression in human SH-SY5Y cells at EC10 by qPCR method relative to beta-actin; assay type: functional
# SK-N-SH [4] = test: Effect on ADORA2A mRNA expression in human SK-N-SH cells at EC10 by qPCR method relative to beta-actin; assay type: functional
# U-118-MG [5] = test: Effect on ADCY5 mRNA expression in human U118MG cells at EC10 by qPCR method relative to beta-actin; assay type: functional
# [6] = Cytotoxicity against human SK-N-SH cells measured after 24 hrs by crystal-violet staining based assay; assay type: toxicity, cell-based
# SH-SY5Y [7] = test: Effect on CXCL10 mRNA expression in human SH-SY5Y cells at EC10 by qPCR method relative to beta-actin; assay type: functional
# SH-SY5Y [8] = test: Effect on TNF mRNA expression in human SH-SY5Y cells at EC10 by qPCR method relative to beta-actin; assay type: functional
# SH-SY5Y [9] = test: Effect on VCAM1 mRNA expression in human SH-SY5Y cells at EC10 by qPCR method relative to beta-actin; assay type: functional
# U-118-MG [10] = test: Effect on ADORA2A mRNA expression in human U118MG cells at EC10 by qPCR method relative to beta-actin; assay type: functional
# SK-N-SH [11] = test: Effect on CXCL10 mRNA expression in human SK-N-SH cells at EC10 by qPCR method relative to beta-actin; assay type: functional
# SK-N-SH [12] = test: Effect on IL10 mRNA expression in human SK-N-SH cells at EC10 by qPCR method relative to beta-actin; assay type: functional
# SK-N-SH [13] = test: Effect on CCL2 mRNA expression in human SK-N-SH cells at EC10 by qPCR method relative to beta-actin; assay type: functional
# [14] = Cytotoxicity against human U118MG cells measured after 24 hrs by crystal-violet staining based assay; assay type: toxicity, cell-based; settings: u-118-mg
# SH-SY5Y [15] = test: Effect on CCL2 mRNA expression in human SH-SY5Y cells at EC10 by qPCR method relative to beta-actin; assay type: functional
# U-118-MG [16] = test: Effect on IL10 mRNA expression in human U118MG cells at EC10 by qPCR method relative to beta-actin; assay type: functional
# SH-SY5Y [17] = test: Effect on ICAM1 mRNA expression in human SH-SY5Y cells at EC10 by qPCR method relative to beta-actin; assay type: functional
# U-118-MG [18] = test: Effect on NFKB1 mRNA expression in human U118MG cells at EC10 by qPCR method relative to beta-actin; assay type: functional
# [19] = biological target: Sphingosine 1-phosphate receptor 1 (Homo sapiens) (UniProt P21453); test: Agonist activity at sphingosine-1-phosphate receptor (unknown origin) expressed in HEK293 cells assessed as increase in cAMP level at EC10 after 18 hrs by CRE-responsive renilla luciferase reporter gene assay; assay type: functional, cell-based
# Sequence of Sphingosine 1-phosphate receptor 1 (Homo sapiens) (P21453 whole entry): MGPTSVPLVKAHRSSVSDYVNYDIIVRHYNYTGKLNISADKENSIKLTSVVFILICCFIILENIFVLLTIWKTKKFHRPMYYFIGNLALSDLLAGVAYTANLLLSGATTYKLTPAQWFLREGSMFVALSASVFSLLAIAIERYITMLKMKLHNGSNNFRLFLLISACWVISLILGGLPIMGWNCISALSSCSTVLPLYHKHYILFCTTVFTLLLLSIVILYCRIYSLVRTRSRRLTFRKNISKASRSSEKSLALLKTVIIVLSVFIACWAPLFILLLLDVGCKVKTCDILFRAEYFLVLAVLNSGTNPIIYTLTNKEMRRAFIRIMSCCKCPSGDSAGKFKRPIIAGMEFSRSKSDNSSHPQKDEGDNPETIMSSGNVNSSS
# SH-SY5Y [20] = test: Effect on IL6 mRNA expression in human SH-SY5Y cells at EC10 by qPCR method relative to beta-actin; assay type: functional
# SK-N-SH [21] = test: Effect on PMP22 mRNA expression in human SK-N-SH cells at EC10 by qPCR method relative to beta-actin; assay type: functional
# U-118-MG [22] = test: Effect on GNAS mRNA expression in human U118MG cells at EC10 by qPCR method relative to beta-actin; assay type: functional
# SK-N-SH [23] = test: Effect on EPHA1 mRNA expression in human SK-N-SH cells at EC10 by qPCR method relative to beta-actin; assay type: functional
# [24] = biological target: Sphingosine 1-phosphate receptor 1 (Homo sapiens) (UniProt P21453); test: Agonist activity at sphingosine-1-phosphate receptor in human SH-SY5Y cells assessed as increase in cAMP level at EC10 by direct immunoassay; assay type: functional, cell-based
# U-118-MG [25] = test: Effect on S1PR1 mRNA expression in human U118MG cells at EC10 by qPCR method relative to beta-actin; assay type: functional
# SH-SY5Y [26] = test: Effect on IL10 mRNA expression in human SH-SY5Y cells at EC10 by qPCR method relative to beta-actin; assay type: functional
# SK-N-SH [27] = test: Effect on GNAS mRNA expression in human SK-N-SH cells at EC10 by qPCR method relative to beta-actin; assay type: functional
# SK-N-SH [28] = test: Effect on IL6 mRNA expression in human SK-N-SH cells at EC10 by qPCR method relative to beta-actin; assay type: functional
# SK-N-SH [29] = test: Effect on DRD2 mRNA expression in human SK-N-SH cells at EC10 by qPCR method relative to beta-actin; assay type: functional
# SK-N-SH [30] = test: Effect on TNF mRNA expression in human SK-N-SH cells at EC10 by qPCR method relative to beta-actin; assay type: functional
# SH-SY5Y [31] = test: Effect on ADORA2A mRNA expression in human SH-SY5Y cells at EC10 by qPCR method relative to beta-actin; assay type: functional
# SK-N-SH [32] = test: Effect on TNFRSF1A mRNA expression in human SK-N-SH cells at EC10 by qPCR method relative to beta-actin; assay type: functional
# SH-SY5Y [33] = test: Effect on MMP9 mRNA expression in human SH-SY5Y cells at EC10 by qPCR method relative to beta-actin; assay type: functional
# SK-N-SH [34] = test: Effect on NFKB1 mRNA expression in human SK-N-SH cells at EC10 by qPCR method relative to beta-actin; assay type: functional
# [35] = biological target: Sphingosine 1-phosphate receptor 1 (Homo sapiens) (UniProt P21453); test: Agonist activity at sphingosine-1-phosphate receptor in human U118MG cells assessed as increase in cAMP level at EC10 by direct immunoassay; assay type: functional, cell-based; settings: U-118-MG
# SH-SY5Y [36] = test: Effect on DRD2 mRNA expression in human SH-SY5Y cells at EC10 by qPCR method relative to beta-actin; assay type: functional
# [37] = Cytotoxicity against human SH-SY5Y cells measured after 24 hrs by crystal-violet staining based assay; assay type: toxicity, cell-based
# SH-SY5Y [38] = test: Effect on GNAS mRNA expression in human SH-SY5Y cells at EC10 by qPCR method relative to beta-actin; assay type: functional
# U-118-MG [39] = test: Effect on MMP9 mRNA expression in human U118MG cells at EC10 by qPCR method relative to beta-actin; assay type: functional
# [40] = biological target: Sphingosine 1-phosphate receptor 1 (Homo sapiens) (UniProt P21453); test: Agonist activity at sphingosine-1-phosphate receptor human SK-N-SH cells assessed as increase in cAMP level at EC10 by direct immunoassay; assay type: functional, cell-based
# SK-N-SH [41] = test: Effect on ADCY5 mRNA expression in human SK-N-SH cells at EC10 by qPCR method relative to beta-actin; assay type: functional
# SK-N-SH [42] = test: Effect on S1PR1 mRNA expression in human SK-N-SH cells at EC10 by qPCR method relative to beta-actin; assay type: functional
# SH-SY5Y [43] = test: Effect on S1PR1 mRNA expression in human SH-SY5Y cells at EC10 by qPCR method relative to beta-actin; assay type: functional
# U-118-MG [44] = test: Effect on VCAM1 mRNA expression in human U118MG cells at EC10 by qPCR method relative to beta-actin; assay type: functional
structure (smiles),measurement,setting,value
CCCCCCCCc1ccc(CCC(N)(CO)CO)cc1 [FINGOLIMOD],fold change (FC),U-118-MG [1],-4.4847
same,fold change (FC),U-118-MG [2],-5.8716
same,fold change (FC),SH-SY5Y [3],-10.091
same,fold change (FC),SK-N-SH [4],-8.1222
same,fold change (FC),U-118-MG [5],-5.5057
same,EC10,[6],550 nM
same,fold change (FC),SH-SY5Y [7],-3.1821
same,fold change (FC),SH-SY5Y [8],-15.9446
same,fold change (FC),SH-SY5Y [9],-4.9933
same,fold change (FC),U-118-MG [10],-4.9966
same,fold change (FC),SK-N-SH [11],-5.2302
same,fold change (FC),SK-N-SH [12],-4.2704
same,fold change (FC),SK-N-SH [13],-11.3481
same,EC10,[14],610 nM
same,fold change (FC),SH-SY5Y [15],-7.8218
same,fold change (FC),U-118-MG [16],-2.5151
same,fold change (FC),SH-SY5Y [17],-6.0839
same,fold change (FC),U-118-MG [18],-3.1465
same,Activity,[19],Active
same,fold change (FC),SH-SY5Y [20],-6.498
same,fold change (FC),SK-N-SH [21],-3.3914
same,fold change (FC),U-118-MG [22],-2.939
same,fold change (FC),SK-N-SH [23],-3.6983
same,Activity,[24],Active
same,fold change (FC),U-118-MG [25],-4.1044
same,fold change (FC),SH-SY5Y [26],-4.2501
same,fold change (FC),SK-N-SH [27],-6.1024
same,fold change (FC),SK-N-SH [28],-4.6974
same,fold change (FC),SK-N-SH [29],-4.5217
same,fold change (FC),SK-N-SH [30],-15.2356
same,fold change (FC),SH-SY5Y [31],-4.4924
same,fold change (FC),SK-N-SH [32],-3.8155
same,fold change (FC),SH-SY5Y [33],-6.6923
same,fold change (FC),SK-N-SH [34],-3.6601
same,Activity,[35],Active
same,fold change (FC),SH-SY5Y [36],-9.8151
same,EC10,[37],540 nM
same,fold change (FC),SH-SY5Y [38],-3.605
same,fold change (FC),U-118-MG [39],-6.3039
same,Activity,[40],Active
same,fold change (FC),SK-N-SH [41],-5.1851
same,fold change (FC),SK-N-SH [42],-5.8741
same,fold change (FC),SH-SY5Y [43],-8.6788
same,fold change (FC),U-118-MG [44],-4.7445
CCCCCCCCn1nnnc1-c1ccc(C(O)CC(N)(CO)CO)cc1.Cl (stereo not drawn),fold change (FC),U-118-MG [1],-4.3829
same,fold change (FC),U-118-MG [2],-5.4523
same,fold change (FC),SH-SY5Y [3],-3.2986
same,fold change (FC),SK-N-SH [4],-4.3394
same,fold change (FC),U-118-MG [5],-6.08
same,EC10,[6],270 nM
same,fold change (FC),SH-SY5Y [7],-3.1588
same,fold change (FC),SH-SY5Y [8],-3.511
same,fold change (FC),SH-SY5Y [9],-4.0191
same,fold change (FC),U-118-MG [10],-4.4431
same,fold change (FC),SK-N-SH [11],-6.1156
same,fold change (FC),SK-N-SH [12],-4.6028
same,fold change (FC),SK-N-SH [13],-4.9933
same,EC10,[14],360 nM
same,fold change (FC),SH-SY5Y [15],-4.1393
same,fold change (FC),U-118-MG [16],-2.6793
same,fold change (FC),SH-SY5Y [17],-3.763
same,fold change (FC),U-118-MG [18],-4.6974
same,Activity,[19],Active
same,fold change (FC),SH-SY5Y [20],-3.0565
same,fold change (FC),SK-N-SH [21],-5.2416
same,fold change (FC),U-118-MG [22],-3.2119
same,fold change (FC),SK-N-SH [23],-3.7516
same,Activity,[24],Active
same,fold change (FC),U-118-MG [25],-3.8312
same,fold change (FC),SH-SY5Y [26],-3.3797
same,fold change (FC),SK-N-SH [27],-4.4537
same,fold change (FC),SK-N-SH [28],-4.899
same,fold change (FC),SK-N-SH [29],-4.2208
same,fold change (FC),SK-N-SH [30],-4.9674
same,fold change (FC),SH-SY5Y [31],-4.6048
same,fold change (FC),SK-N-SH [32],-4.1053
same,fold change (FC),SH-SY5Y [33],-3.9092
same,fold change (FC),SK-N-SH [34],-3.6999
same,Activity,[35],Active
same,fold change (FC),SH-SY5Y [36],-3.4837
same,EC10,[37],300 nM
same,fold change (FC),SH-SY5Y [38],-4.6852
same,fold change (FC),U-118-MG [39],-4.5002
same,Activity,[40],Active
same,fold change (FC),SK-N-SH [41],-4.6187
same,fold change (FC),SK-N-SH [42],-4.2281
same,fold change (FC),SH-SY5Y [43],-5.0215
same,fold change (FC),U-118-MG [44],-5.7757

# From ChEMBL document CHEMBL3872249, “Computer design, synthesis, and bioactivity analyses of drugs like fingolimod used in the treatment of multiple sclerosis” (Bioorg Med Chem, 2017)
